What all share (assay): SILAC proteomics / in-gel fluorescence, competition of probe 13-t labeling by 3a
The target in experiment [1] is proteins of HEK293T cells transiently overexpressing caspase-6 (Homo sapiens, UniProt P05388). The settings on record: Comp; protein RPLP0 P05388.
In experiment [2] the target is proteins of HEK293T cells transiently overexpressing caspase-6 (Homo sapiens, UniProt P06744).
The target of experiment [3] is proteins of HEK293T cells transiently overexpressing caspase-6 (Homo sapiens, UniProt P07437). The settings on record: Comp; protein TUBB P07437.
The target in experiment [4] is proteins of HEK293T cells transiently overexpressing caspase-6 (Homo sapiens, UniProt P08238). The following applies: Comp; protein HSP90AB1 P08238.
Experiment [5] addresses proteins of HEK293T cells transiently overexpressing caspase-6 (Homo sapiens, UniProt P11021).
In experiment [6] the target is proteins of HEK293T cells transiently overexpressing caspase-6 (Homo sapiens, UniProt P11388). The settings on record: Comp; protein TOP2A P11388.
Experiment [7] concerns the target proteins of HEK293T cells transiently overexpressing caspase-6 (Homo sapiens, UniProt P23526). The settings on record: Comp; protein AHCY P23526.
For experiment [8], the target named is T1, proteins of HEK293T cells transiently overexpressing caspase-6 (Homo sapiens, UniProt P25789).
T1 sequence (P25789 1-261): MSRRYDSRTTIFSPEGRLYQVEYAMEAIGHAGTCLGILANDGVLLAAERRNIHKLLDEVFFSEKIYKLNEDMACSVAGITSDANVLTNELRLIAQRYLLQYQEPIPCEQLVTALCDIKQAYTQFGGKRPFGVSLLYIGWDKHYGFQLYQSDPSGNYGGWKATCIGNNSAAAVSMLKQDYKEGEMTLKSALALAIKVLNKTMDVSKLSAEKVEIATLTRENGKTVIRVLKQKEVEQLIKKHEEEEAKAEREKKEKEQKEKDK

For experiment [9], the target named is proteins of HEK293T cells transiently overexpressing caspase-6 (Homo sapiens, UniProt P27695). The following applies: Comp; protein APEX1 P27695.
The target of experiment [10] is T2, proteins of HEK293T cells transiently overexpressing caspase-6 (Homo sapiens, UniProt P30041).
T2 sequence (P30041 1-224): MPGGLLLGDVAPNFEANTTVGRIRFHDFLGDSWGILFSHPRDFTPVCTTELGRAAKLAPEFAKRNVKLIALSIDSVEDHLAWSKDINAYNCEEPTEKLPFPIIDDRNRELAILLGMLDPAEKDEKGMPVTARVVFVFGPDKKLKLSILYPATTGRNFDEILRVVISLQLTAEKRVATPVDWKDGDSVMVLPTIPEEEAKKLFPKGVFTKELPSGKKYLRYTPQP
The settings on record: Comp; protein PRDX6 P30041.

Experiment [11] deals with proteins of HEK293T cells transiently overexpressing caspase-6 (Homo sapiens, UniProt P38606). The settings on record: Comp; protein ATP6V1A P38606.
Experiment [12] deals with proteins of HEK293T cells transiently overexpressing caspase-6 (Homo sapiens, UniProt P39023). The settings on record: Comp; protein RPL3 P39023.
The target in experiment [13] is proteins of HEK293T cells transiently overexpressing caspase-6 (Homo sapiens, UniProt P52272). The settings on record: Comp; protein HNRNPM P52272.
The target in experiment [14] is proteins of HEK293T cells transiently overexpressing caspase-6 (Homo sapiens, UniProt Q00839). The following applies: Comp; protein HNRNPU Q00839.
Experiment [15] deals with proteins of HEK293T cells transiently overexpressing caspase-6 (Homo sapiens, UniProt Q14974). The settings on record: Comp; protein KPNB1 Q14974.
Experiment [16] deals with proteins of HEK293T cells transiently overexpressing caspase-6 (Homo sapiens, UniProt Q15185). The settings on record: Comp; protein PTGES3 Q15185.
The target in experiment [17] is proteins of HEK293T cells transiently overexpressing caspase-6 (Homo sapiens, UniProt Q15393). The following applies: Comp; protein SF3B3 Q15393.
The target of experiment [18] is proteins of HEK293T cells transiently overexpressing caspase-6 (Homo sapiens, UniProt Q7KZF4). The settings on record: Comp; protein SND1 Q7KZF4.
The mark [19] stands for this setting: protein GPI (P06744), Exp Comp, analysis C6, p 0.0078, 8 peptides.
Where [20] appears, read: protein HSPA5 (P11021), Exp Comp, analysis C6, p 0.000244, 13 peptides.
Setting [21] is: protein PSMA4 (P25789), Exp Comp, analysis C6, p 0.0625, 5 peptides.

proteins of HEK293T cells transiently overexpressing caspase-6 (Homo sapiens, UniProt P11021), sequence (P11021 19-654): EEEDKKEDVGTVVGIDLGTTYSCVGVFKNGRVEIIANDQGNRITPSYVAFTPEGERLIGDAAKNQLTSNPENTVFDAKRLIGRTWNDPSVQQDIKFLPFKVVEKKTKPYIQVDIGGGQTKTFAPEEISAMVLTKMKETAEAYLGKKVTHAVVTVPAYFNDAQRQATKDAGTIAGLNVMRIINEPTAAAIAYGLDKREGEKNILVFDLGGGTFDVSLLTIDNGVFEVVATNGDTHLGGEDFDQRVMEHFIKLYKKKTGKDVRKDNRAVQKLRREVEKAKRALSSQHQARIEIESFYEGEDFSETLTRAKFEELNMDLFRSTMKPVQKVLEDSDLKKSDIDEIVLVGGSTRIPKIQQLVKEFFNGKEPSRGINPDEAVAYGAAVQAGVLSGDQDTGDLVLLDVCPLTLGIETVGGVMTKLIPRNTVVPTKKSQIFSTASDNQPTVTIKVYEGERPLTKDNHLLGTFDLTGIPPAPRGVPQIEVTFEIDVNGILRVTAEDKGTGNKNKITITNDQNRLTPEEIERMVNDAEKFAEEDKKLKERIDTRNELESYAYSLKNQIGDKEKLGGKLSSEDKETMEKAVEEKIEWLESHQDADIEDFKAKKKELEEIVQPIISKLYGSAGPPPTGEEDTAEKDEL
proteins of HEK293T cells transiently overexpressing caspase-6 (Homo sapiens, UniProt Q00839), sequence (Q00839 whole entry): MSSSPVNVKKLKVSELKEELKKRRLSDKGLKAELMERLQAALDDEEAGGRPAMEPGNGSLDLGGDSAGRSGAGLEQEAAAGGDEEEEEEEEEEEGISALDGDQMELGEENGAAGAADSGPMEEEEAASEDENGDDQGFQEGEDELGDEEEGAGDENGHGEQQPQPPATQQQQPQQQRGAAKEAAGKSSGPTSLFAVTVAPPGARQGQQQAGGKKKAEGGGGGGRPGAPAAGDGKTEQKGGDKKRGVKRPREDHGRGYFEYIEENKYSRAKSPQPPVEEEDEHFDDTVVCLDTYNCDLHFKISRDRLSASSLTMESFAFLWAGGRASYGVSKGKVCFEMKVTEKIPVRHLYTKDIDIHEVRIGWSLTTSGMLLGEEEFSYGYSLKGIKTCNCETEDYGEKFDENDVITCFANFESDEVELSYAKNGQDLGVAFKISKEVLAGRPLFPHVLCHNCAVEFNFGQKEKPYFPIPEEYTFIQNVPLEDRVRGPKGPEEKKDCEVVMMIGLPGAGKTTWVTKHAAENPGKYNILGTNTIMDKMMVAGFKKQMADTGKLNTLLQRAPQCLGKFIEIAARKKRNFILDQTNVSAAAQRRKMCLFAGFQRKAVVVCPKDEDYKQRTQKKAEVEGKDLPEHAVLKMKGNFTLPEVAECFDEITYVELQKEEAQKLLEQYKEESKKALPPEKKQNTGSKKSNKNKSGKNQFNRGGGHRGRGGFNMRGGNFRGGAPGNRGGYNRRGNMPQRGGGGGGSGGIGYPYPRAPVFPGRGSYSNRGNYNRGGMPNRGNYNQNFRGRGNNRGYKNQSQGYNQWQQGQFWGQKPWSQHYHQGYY
proteins of HEK293T cells transiently overexpressing caspase-6 (Homo sapiens, UniProt P38606), sequence (P38606 whole entry): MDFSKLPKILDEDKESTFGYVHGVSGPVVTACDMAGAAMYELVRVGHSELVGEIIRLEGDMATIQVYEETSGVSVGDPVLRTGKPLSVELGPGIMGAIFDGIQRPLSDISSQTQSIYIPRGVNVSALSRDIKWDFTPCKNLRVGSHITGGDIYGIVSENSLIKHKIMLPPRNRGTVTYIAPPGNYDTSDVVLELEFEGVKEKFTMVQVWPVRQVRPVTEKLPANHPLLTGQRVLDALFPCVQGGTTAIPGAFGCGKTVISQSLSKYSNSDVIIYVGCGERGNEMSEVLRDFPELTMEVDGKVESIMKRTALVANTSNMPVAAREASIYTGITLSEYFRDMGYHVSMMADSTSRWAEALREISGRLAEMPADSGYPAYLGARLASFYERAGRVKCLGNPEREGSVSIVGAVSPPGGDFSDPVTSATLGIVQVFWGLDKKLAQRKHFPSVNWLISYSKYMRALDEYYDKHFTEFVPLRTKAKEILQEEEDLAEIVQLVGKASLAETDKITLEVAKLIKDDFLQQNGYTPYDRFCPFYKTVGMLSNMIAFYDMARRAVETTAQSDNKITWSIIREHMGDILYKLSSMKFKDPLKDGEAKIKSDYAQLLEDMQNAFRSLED
proteins of HEK293T cells transiently overexpressing caspase-6 (Homo sapiens, UniProt P07437), sequence (P07437 whole entry): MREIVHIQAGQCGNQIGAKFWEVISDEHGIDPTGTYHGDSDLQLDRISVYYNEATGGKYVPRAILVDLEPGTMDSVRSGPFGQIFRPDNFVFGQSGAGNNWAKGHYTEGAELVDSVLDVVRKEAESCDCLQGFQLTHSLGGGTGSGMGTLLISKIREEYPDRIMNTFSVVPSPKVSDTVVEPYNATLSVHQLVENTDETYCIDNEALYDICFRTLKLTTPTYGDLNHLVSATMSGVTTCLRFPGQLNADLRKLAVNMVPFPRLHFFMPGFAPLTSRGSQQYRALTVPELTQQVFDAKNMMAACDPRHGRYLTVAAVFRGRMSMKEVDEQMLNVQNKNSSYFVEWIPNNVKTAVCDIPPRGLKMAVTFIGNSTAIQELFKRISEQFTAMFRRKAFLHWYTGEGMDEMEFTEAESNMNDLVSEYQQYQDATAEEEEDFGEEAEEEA
proteins of HEK293T cells transiently overexpressing caspase-6 (Homo sapiens, UniProt P11388), sequence (P11388 whole entry): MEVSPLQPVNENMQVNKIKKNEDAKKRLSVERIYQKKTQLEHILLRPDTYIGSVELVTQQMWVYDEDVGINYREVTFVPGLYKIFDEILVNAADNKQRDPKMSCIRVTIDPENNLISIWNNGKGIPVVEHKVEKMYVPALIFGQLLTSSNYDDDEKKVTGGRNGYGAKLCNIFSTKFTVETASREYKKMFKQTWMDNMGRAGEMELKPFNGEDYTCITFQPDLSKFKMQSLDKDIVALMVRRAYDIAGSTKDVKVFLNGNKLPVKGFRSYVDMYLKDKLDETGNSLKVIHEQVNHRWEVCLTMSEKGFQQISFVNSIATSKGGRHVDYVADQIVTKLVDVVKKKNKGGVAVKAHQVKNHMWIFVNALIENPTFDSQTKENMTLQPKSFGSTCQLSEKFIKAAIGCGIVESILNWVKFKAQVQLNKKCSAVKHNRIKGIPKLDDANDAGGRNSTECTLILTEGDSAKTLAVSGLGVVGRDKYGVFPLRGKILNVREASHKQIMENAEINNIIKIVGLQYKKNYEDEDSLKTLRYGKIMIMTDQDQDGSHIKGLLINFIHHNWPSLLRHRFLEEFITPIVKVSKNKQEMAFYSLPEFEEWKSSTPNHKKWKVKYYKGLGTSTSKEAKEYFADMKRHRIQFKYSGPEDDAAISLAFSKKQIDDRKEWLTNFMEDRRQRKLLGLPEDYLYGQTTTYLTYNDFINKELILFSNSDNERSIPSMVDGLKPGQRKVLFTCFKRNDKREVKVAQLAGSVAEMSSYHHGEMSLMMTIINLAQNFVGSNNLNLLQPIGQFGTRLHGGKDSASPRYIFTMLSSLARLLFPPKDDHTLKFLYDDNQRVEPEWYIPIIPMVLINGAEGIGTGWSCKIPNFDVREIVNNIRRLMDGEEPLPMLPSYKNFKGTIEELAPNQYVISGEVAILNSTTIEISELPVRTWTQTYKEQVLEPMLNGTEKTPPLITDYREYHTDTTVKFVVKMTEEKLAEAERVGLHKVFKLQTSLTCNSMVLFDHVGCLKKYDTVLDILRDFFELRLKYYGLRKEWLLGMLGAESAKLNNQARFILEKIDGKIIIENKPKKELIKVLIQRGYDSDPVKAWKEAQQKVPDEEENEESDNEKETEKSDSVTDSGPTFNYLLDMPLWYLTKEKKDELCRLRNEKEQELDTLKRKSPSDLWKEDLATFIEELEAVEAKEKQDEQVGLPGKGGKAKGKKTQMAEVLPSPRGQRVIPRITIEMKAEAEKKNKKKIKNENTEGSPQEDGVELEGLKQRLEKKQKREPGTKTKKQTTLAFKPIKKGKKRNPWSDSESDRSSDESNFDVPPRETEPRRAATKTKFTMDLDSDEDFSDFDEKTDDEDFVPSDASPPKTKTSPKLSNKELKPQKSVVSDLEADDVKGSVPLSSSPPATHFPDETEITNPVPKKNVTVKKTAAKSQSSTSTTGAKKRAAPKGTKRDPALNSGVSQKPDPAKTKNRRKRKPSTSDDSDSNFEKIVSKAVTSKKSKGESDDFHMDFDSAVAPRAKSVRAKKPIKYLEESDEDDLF
proteins of HEK293T cells transiently overexpressing caspase-6 (Homo sapiens, UniProt Q14974), sequence (Q14974 whole entry): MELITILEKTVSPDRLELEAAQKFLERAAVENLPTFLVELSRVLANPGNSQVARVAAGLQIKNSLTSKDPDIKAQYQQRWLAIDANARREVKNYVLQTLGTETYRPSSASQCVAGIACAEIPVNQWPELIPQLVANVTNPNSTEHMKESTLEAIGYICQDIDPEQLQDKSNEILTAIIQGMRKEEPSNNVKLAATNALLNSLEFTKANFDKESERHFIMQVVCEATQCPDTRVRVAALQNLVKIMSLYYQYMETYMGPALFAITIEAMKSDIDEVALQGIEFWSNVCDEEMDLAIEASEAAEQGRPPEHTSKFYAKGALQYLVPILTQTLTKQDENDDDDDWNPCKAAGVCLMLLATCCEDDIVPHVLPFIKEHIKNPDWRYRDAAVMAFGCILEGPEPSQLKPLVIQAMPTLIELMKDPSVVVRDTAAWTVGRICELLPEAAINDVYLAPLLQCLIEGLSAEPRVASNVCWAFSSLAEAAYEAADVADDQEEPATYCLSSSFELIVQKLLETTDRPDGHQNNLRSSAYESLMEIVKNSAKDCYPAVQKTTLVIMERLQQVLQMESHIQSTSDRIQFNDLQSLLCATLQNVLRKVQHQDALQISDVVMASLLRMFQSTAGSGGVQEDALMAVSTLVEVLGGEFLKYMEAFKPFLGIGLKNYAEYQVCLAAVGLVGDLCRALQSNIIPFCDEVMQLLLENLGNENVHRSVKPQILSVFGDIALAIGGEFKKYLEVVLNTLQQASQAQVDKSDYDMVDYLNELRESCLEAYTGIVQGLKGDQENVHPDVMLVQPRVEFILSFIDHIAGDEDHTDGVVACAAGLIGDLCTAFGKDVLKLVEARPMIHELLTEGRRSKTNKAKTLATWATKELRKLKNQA

With `C=CS(=O)(=O)N1C[C@H](C(=O)Nc2ccc(OC(F)(F)F)cc2)C[C@@H](c2ccccc2)C1` [3a], the enrich.exp.med in [1] is reported as 0.8946; in experiment [2] (Comp, protein GPI P06744) it was 1.157; in [3], 0.8512; in experiment [4], 0.6024; in [5] (Comp, protein HSPA5 P11021), 1.086; in experiment [6], 0.7274. Also, the enrich.exp.med is 0.6961 in experiment [7]; 0.9624 in [8] (Comp, protein PSMA4 P25789); 0.6367 in experiment [9]; 0.6066 in experiment [10]; 0.8033 in experiment [11]; 0.8762 in [12]. Also, the enrich.exp.med in experiment [13] is 0.6442; in [14], 0.6324; in experiment [15] it was 0.6036; in [16], 0.8422; in experiment [17] it was 0.5835; in [18], 0.6493. Further, the enrich.exp.med.lin in [2] (setting [19]) is given as 2.229; in experiment [5] (setting [20]), 2.123; in experiment [8] (setting [21]) it was 1.949. Also, the enrich.exp.med.log2 worked out at 1.157 in experiment [2] (setting [19]), 1.086 in experiment [5] (setting [20]) and 0.9624 in [8] (setting [21]).
